Results: paper PMC8047743 (ACS Omega, 2021)

Assays:
HepG2 cells = experiment: In vitro cytotoxicity on HepG2 cells; format: cell-based; conditions: 50 μM, 24 h, MTT
[1] = cited from earlier work

In the case of `Nc1c2c(nc3ccccc13)CCCC2` [tacrine, Tacrine], the “inhibitory rate (%) on HepG2 cells” value (HepG2 cells) is listed as 49.91 ± 0.61% and the “patients with increased serum alanine aminotransferase levels” value [1] is listed as “about 30%”.
